Two molecules from patent US20240270753A1, “HETEROCYCLIC COMPOUND FOR INHIBITING SHP2 ACTIVITY, PREPARATION METHOD THEREFOR AND USE THEREOF” (SHANGHAI INSTITUTE OF MATERIA MEDICA, CHINESE ACADEMY OF …, priority 2021, published 2024) can be followed below.

One test relates to MV4-11 cells. As to the kind of experiment: MV4-11 cell proliferation inhibition assay (MTS). The class given is cell-based. The conditions noted are these: MTS read on the third day. The procedure: (a) SHP099 and TNO155 were used as positive controls.
(b) MV4-11 cells (10,000 cells/well) were seeded in a 96-well culture plate with 100 μL/well of the culture medium (IMDM supplemented with 10% fetal bovine serum (FBS), from Gibco company), and cultured for 6 hours. The compounds formulated in different concentrations of the present invention were added. On the third day, 20 μL of MTS reagent (purchased from Promega Company) was added to each well, and the absorbance value was detected according to the reagent instructions (Promega Company). The IC50 of the inhibitory activity of the compounds of the present invention against the MV4-11 cell proliferation is shown in Table 2.

Test [1] has as its system p-ERK 1/2 (Thr202/Tyr204) in MIAPaca-2 cells. As to the kind of experiment: Cell protein kinase (p-ERK) phosphorylation inhibition, AlphaLISA. The class given is cell-based. The conditions noted are these: treated for 2 hours. The procedure:
The inhibition of the phosphorylation level of intracellular protein kinase (ERK) by a compound was detected by AlphaLISA method. The first step was to treat the cells with the compound. The compound to be tested was first diluted 5-fold with 100% DMSO, and a gradient including a total of 9 different concentrations was set; then MIAPaca-2 cells were inoculated into a 96-well plate at a density of 40,000 cells per well, with a volume of 80 μL per well; then 20 μL of DMSO or the compound to be tested with different concentrations was added to each well, with 2 replicates for each concentration, and the final concentration of DMSO was controlled at 0.5%. The second step was to lyse the cells. After the cells were treated for 2 hours, the culture medium was removed, and the cells were washed three times with a HBSS solution. 50 μL of a freshly prepared lysis buffer was added to each well, shaken, and left at room temperature for 10 minutes. […] 10 μL of the above lysate was put into a 384-well plate (Perkin Elmer, 6005350), and the phosphorylation level of the extracellular signal-regulated kinase in the sample was detected according to the manufacturer's instructions. Signals were read using the AlphaScreen detector on an Envision multifunctional microplate reader (PerkinElmer). The inhibition (%) was calculated by the following equation: […]

As for `CC1(N)CCN(c2cnc(-c3cccc(Cl)c3Cl)c(N)n2)CC1` [SHP099], the IC50 with MV4-11 cells was 883 ± 105 nM. `C[C@@H]1OCC2(CCN(c3cnc(Sc4ccnc(N)c4Cl)c(N)n3)CC2)[C@@H]1N` [TNO155]: the IC50 in the test on MV4-11 cells was 118 ± 5.8 nM; in test [1], 30 nM.
